Patent publication US9556217B2, “Amphiphilic compounds” (WISCONSIN ALUMNI RESEARCH FOUNDATION, priority 2012, dated 2017)

Target: T1, β2AR WT (Homo sapiens, UniProt P07550)
T1 construct: made in house; host or cells: Sf9 insect cells (baculovirus); lysed cells and membranes extracted directly with amphiphile
Test: Extraction of β2AR WT from insect cell membranes
Details: 1 or 2 wt %; western blotting
Experimental: The favorable MelB extraction performance of GDN led to the examination of this amphiphile for extraction of other IMPs. […] DDM and GDN were used to extract a CMP-Sia fusion protein bearing green fluorescent protein (GFP) at the C-terminus, after expression in Saccharomyces cerevisiae; the amount of solubilized protein was estimated by total fluorescence. GDN (2 wt %), DDM (1 wt %) and OG (1 wt %) gave ˜70%, ˜80% and ˜50% extraction yields, respectively.
The procedure was performed according to the protocol reported by Chae and coworkers (Nat. Methods 2010, 7, 1003-1008).
A gene encoding amino-terminally FLAG epitope tagged β2AR was expressed in Sf9 cells by baculovirus, with no ligand present during culture. Cells were infected at a density of 4×10^6 cells/mL and then cultured for 48 hours prior to harvesting by centrifugation. Cells were resuspended and lysed by osmotic shock with a low ionic strength buffer (20 mM Tris pH 7.5, 1 mM EDTA). The lysed cells were aliquoted 35 mg per aliquot, then frozen. For extraction tests, 300 μL of solubilization buffer (20 mM HEPES pH 7.5, 100 mM NaCl) containing each amphiphile was added to each aliquot, which was then homogenized by pipet followed by grinding with a glass dounce tissue homogenizer. After two-hour incubation at 4° C., samples were centrifuged at maximum speed in a tabletop microcentrifuge to pellet insoluble material. […]

T1 sequence (P07550 whole entry): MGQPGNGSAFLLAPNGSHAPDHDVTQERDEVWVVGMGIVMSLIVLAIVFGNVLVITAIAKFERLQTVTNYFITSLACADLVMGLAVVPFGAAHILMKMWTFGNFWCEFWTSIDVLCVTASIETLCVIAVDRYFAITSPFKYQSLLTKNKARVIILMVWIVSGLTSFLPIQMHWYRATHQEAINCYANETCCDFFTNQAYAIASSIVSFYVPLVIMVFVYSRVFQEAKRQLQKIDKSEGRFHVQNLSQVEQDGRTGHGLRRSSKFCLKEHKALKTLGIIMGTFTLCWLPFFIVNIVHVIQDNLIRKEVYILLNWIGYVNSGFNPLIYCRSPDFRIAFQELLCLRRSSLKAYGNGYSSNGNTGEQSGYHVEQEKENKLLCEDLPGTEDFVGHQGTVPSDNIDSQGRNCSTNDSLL

C[C@@H]1CC[C@@]2(OC1)O[C@H]1C[C@H]3[C@@H]4CC=C5C[C@@H](OCCC(CO[C@@H]6OC(CO)[C@@H](O[C@H]7OC(CO)[C@@H](O)C(O)C7O)C(O)C6O)CO[C@@H]6OC(CO)[C@@H](O[C@H]7OC(CO)[C@@H](O)C(O)C7O)C(O)C6O)CC[C@]5(C)[C@H]4CC[C@]3(C)[C@@H]1[C@@H]2C (stereo partly shown) [GDN, glyco-diosgenin]
β2AR WT extraction compared with 1 wt % DDM: more effective than was 1 wt % DDM
